In the supplement of paper PMC6045584:
± gives the standard deviation of the averaged measurements.

Experiments:
[1] = compound: Cn1ncnc1[C@H]1c2n[nH]c(=O)c3cc(F)cc(c23)N[C@@H]1c1ccc(F)cc1 [BMN-673]; experiment: surviving fraction relative to DMSO-only wells; higher = less growth inhibition; settings: exposure time: 5 days
Outline: (§1)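 Viability was determined by CellTiter-Glo luminescence, expressed as surviving fraction normalised to the median of DMSO-only wells. The cells were log-phase tumour cell lines seeded at 250–500 per well in 384-well plates and, after 24 hours, exposed continuously for five days to inhibitors at 0.5, 1, 5, 10, 50, 100, 500 and 1000 nM. Three screens per line were run, keeping only lines with replicate Pearson r >0.7 and median Z' >0.3.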

[2] = compound: COc1ccc(-c2cc3c(C)nc(N)nc3n([C@H]3CC[C@H](OCCO)CC3)c2=O)cn1; experiment: as above; settings: exposure time: 5 days
Outline: as §1

Row | Test System | surviving fraction ([1]; 0.5 nM) | surviving fraction ([1]; 1 nM) | surviving fraction ([1]; 5 nM) | surviving fraction ([1]; 10 nM) | surviving fraction ([1]; 50 nM) | surviving fraction ([1]; 100 nM) | surviving fraction ([1]; 500 nM) | surviving fraction ([1]; 1000 nM) | surviving fraction ([2]; 0.5 nM) | surviving fraction ([2]; 1 nM) | surviving fraction ([2]; 5 nM) | surviving fraction ([2]; 10 nM) | surviving fraction ([2]; 50 nM) | surviving fraction ([2]; 100 nM) | surviving fraction ([2]; 500 nM) | surviving fraction ([2]; 1000 nM)
1 | NOS1 BONE | 1.1 ± 0.058 | 0.953 ± 0.093 | 0.683 ± 0.026 | 0.66 ± 0.066 | 0.633 ± 0.085 | 0.564 ± 0.051 | 0.551 ± 0.042 | 0.552 ± 0.026 | 1.13 ± 0.032 | 0.989 ± 0.13 | 1.2 ± 0.16 | 0.96 ± 0.1 | 0.6 ± 0.048 | 0.448 ± 0.029 | 0.158 ± 0.0032 | 0.095 ± 0.015
2 | NY BONE | 1.019 ± 0.0087 | 1.01 ± 0.025 | 1.01 ± 0.037 | 0.934 ± 0.056 | 0.928 ± 0.047 | 0.879 ± 0.033 | 0.501 ± 0.011 | 0.257 ± 0.014 | 0.925 ± 0.027 | 0.916 ± 0.038 | 0.909 ± 0.022 | 0.84 ± 0.047 | 0.668 ± 0.029 | 0.602 ± 0.028 | 0.369 ± 0.019 | 0.317 ± 0.0068
3 | OS25HAL BONE | 1.1 ± 0.034 | 1.01 ± 0.037 | 0.96 ± 0.063 | 0.994 ± 0.017 | 0.91 ± 0.06 | 0.812 ± 0.014 | 0.327 ± 0.02 | 0.178 ± 0.021 | 0.95 ± 0.012 | 0.9753 ± 0.0029 | 0.9657 ± 0.0091 | 0.86 ± 0.041 | 0.603 ± 0.042 | 0.35 ± 0.066 | 0.13 ± 0.0092 | 0.0623 ± 0.0049
4 | OSHN BONE | 1.08 ± 0.024 | 1.04 ± 0.016 | 0.996 ± 0.023 | 0.9107 ± 0.004 | 0.742 ± 0.011 | 0.573 ± 0.081 | 0.197 ± 0.012 | 0.145 ± 0.009 | 1.03 ± 0.024 | 1.03 ± 0.035 | 1.02 ± 0.029 | 1.01 ± 0.03 | 1.1 ± 0.0058 | 1.03 ± 0.034 | 0.447 ± 0.016 | 0.267 ± 0.0045
5 | PCI30 HEADNECK | 1.01 ± 0.071 | 1.04 ± 0.092 | 0.91 ± 0.063 | 0.737 ± 0.056 | 0.585 ± 0.025 | 0.495 ± 0.0052 | 1.04 ± 0.025 | 1.08 ± 0.069 | 0.935 ± 0.034 | 0.947 ± 0.079 | 0.902 ± 0.023 | 0.963 ± 0.1 | 0.716 ± 0.028 | 0.495 ± 0.033 | 0.181 ± 0.004 | 0.151 ± 0.0076
6 | RDES SOFT TISSUE | 1.16 ± 0.1 | 1.38 ± 0.055 | 1.07 ± 0.022 | 1.09 ± 0.093 | 0.472 ± 0.077 | 0.137 ± 0.011 | 0.035 ± 0.001 | 0.0337 ± 0.0025 | 1.23 ± 0.074 | 1.24 ± 0.12 | 1.13 ± 0.1 | 1.22 ± 0.097 | 1.34 ± 0.055 | 1.03 ± 0.038 | 0.301 ± 0.015 | 0.166 ± 0.021
7 | S68 BREAST | 1.17 ± 0.16 | 0.724 ± 0.12 | 0.602 ± 0.18 | 0.533 ± 0.095 | 0.445 ± 0.17 | 0.378 ± 0.059 | 0.357 ± 0.032 | 0.271 ± 0.054 | 0.953 ± 0.24 | 0.88 ± 0.11 | 0.993 ± 0.2 | 0.845 ± 0.18 | 0.334 ± 0.082 | 0.16 ± 0.02 | 0.0503 ± 0.0051 | 0.034 ± 0.001
8 | SAOS2 BONE | 1.05 ± 0.058 | 1 ± 0.029 | 0.999 ± 0.077 | 0.831 ± 0.069 | 0.675 ± 0.018 | 0.489 ± 0.047 | 0.285 ± 0.022 | 0.219 ± 0.047 | 1.11 ± 0.018 | 1.07 ± 0.016 | 0.98 ± 0.083 | 0.931 ± 0.04 | 0.636 ± 0.018 | 0.52 ± 0.014 | 0.174 ± 0.0087 | 0.0977 ± 0.0011
